{
  "source": "paper PMC5549559",
  "about": "(Cellular signalling, 2015)",
  "key": {"[1]": {"tested_on": "kappa opioid receptor (KOR)", "experiment": "GloSensor cAMP assay", "assay_type": "cell-based"}, "[2]": {"tested_on": "kappa opioid receptor (KOR)", "experiment": "PathHunter β-arrestin recruitment assay in Drx-KOR cells", "assay_type": "cell-based", "settings": "dynorphin, various concentrations, 90 min at 37°C; Drx-KOR cells (Figure 5A)"}, "p38": {"tested_on": "p38", "experiment": "p38 activation", "assay_type": "cell-based, Chinese hamster", "settings": "western blot, ± SD, mean of 3 separate experiments (Figure 5D)"}, "rats": {"tested_on": "rats", "settings": "ref [11], cited from earlier work; for cocaine self-administration (drug intake): intra-VTA infusion, rats"}},
  "data": [
    {"compound": "O=S(=O)(NCCNC/C=C/c1ccc(Br)cc1)c1cccc2cnccc12", "note": "[H89]", "values": [
      {"measurement": "effect of PKA inhibitor on OX1R attenuation of KOR Gαi signaling", "setting": "[1]; PKI or H89, 2 h, CHO-KOR + HA-OX1R, 500 nM orexin, 1 μM dynorphin (Figure 2B)", "result": "did not affect OX1R attenuation of KOR Gαi signaling"}
    ]},
    {"compound": "Dynorphin A (1-17) (YGGFLRRIRPKLKWDNQ; Dynorphin A(1-17); UniProt P01213 207-223, looked up)", "values": [
      {"measurement": "KOR response to dynorphin (cAMP) on transfection and activation of 5HT2aR", "setting": "[1]; 1 μM dynorphin, CHO-KOR + 5HT2aR, activated (Figure 1A)", "result": "does not affect the KOR response to dynorphin"},
      {"measurement": "β-arrestin recruitment to KOR (luminescence)", "setting": "[2]", "result": "concentration-dependent increase in luminescence"},
      {"measurement": "increase in phospho-p38/total p38", "setting": "p38; 1 μM dynorphin, 15 min, CHO-KOR cells, relative to untreated", "result": "1.76 ± 0.12", "unit": "fold"},
      {"measurement": "increase in phospho-p38/total p38", "setting": "p38; CHO-KOR + HA-OX1R, 500 nM orexin 10 min prior to dynorphin, relative to untreated cells", "result": "2.82 ± 0.36", "unit": "fold"}
    ]},
    {"compound": "Oc1ccc2c3c1O[C@H]1c4[nH]c5c(c4C[C@@]4(O)[C@@H](C2)N(CC2CC2)CC[C@]314)C[C@@]1(O)[C@H]2Cc3ccc(O)c4c3[C@@]1(CCN2CC1CC1)[C@H]5O4", "note": "[norBNI]", "values": [
      {"measurement": "cocaine self-administration (drug intake)", "setting": "rats", "result": "has no effect on drug intake"},
      {"measurement": "effect on ability of SB-334867 to reduce drug intake", "setting": "rats; norBNI with SB-334867, rats", "result": "blocks the ability of SB-334867 to reduce drug intake"}
    ]},
    {"compound": "Cc1nc2ccc(NC(=O)Nc3ccnc4cccnc34)cc2o1", "note": "[SB-334867]", "values": [
      {"measurement": "cocaine self-administration (drug intake)", "setting": "rats", "result": "reduces cocaine self-administration in rats"}
    ]}
  ]
}
